Experiment [1] deals with NLRP3 inflammasome (IL-1β production in THP-1 cells). The experiment can be described thus: IL-1β TR-FRET Assay (percentage of inhibition at 300 nM, 6 μM or 10 μM). To be noted: LPS priming, ATP activation; for inhibition at 0.3 µM / inhibition at 6 µM: Homo sapiens; for inhibition at 0.3 µM: THP-1, 300 nM, read-out: IL-1β inhibitory rate at 300 nM (%); for inhibition at 6 µM: THP-1, 6 μM, read-out: IL-1β inhibitory rate at 6 μM (%); for IL-1β inhibitory rate at 300 nM (%): 0.3 µM. Type of experiment: cell-based, human. The procedure, abridged:
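THP-1 cells were differentiated with 25 ng/mL IFN-γ for 24 h, primed with 50 ng/mL LPS in serum-free medium for 24 h, then given compound for 30 min before 20 mM ATP for 2 h. Supernatant IL-1β was measured by HTRF after 16-24 h at room temperature. Inhibition was normalized between DMSO (high) and 3 μM MCC-950 (low).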

In experiment [2] the test system is TNF-α (NF-κB pathway, THP-1 cells). Description: TNF-α Assay (IC50). Type of experiment: cell-based, human. To be noted: 600 ng/mL LPS, 3 hours. Here is the method:
TNF-α Assay (Reported as IC50)
Monocytic THP-1 cells (ATCC: TIB-202) were maintained in accordance with the provider's instructions in RPMI media (Life Technologies, Cat #A10491-01); RPMI was supplemented with 10% heat inactivated fetal bovine serum (Hyclone Cat #SH30396.03). The cells were differentiated into macrophages by the addition of 25 ng/mL IFN-7 for 24 hours at 37° C./5% CO2. Media was exchanged with fresh media with no FBS. The cells were plated at 40,000 cells per well in 384-well flat-bottom cell culture plates (Costar 3764) containing compounds (added in 1:1000) in a 1:3.16 serial dilution series in DMSO and were incubated for 30 minutes at 37° C./5% CO2. The NF-κB pathway was activated with the addition of 600 ng/mL LPS and the cells were incubated for 3 hours at 37° C./5% CO2. At the end of the incubation period, supernatant ([…]) was removed, and TNF-alpha were monitored using an ELISA (Human TNF-α ELISA, R&D systems, Cat #DY210) according to the manufacturer's instructions. 100% inhibition is determined with positive control, TPCA-1.
The IC50 values in the TNF-α assay were calculated from a plot of percentage of inhibition versus the inhibitor concentration by a logistics curve fit according to: Y=[Bottom+(Top−Bottom)]/(1+10^[(Log IC50−X)·Hill Slope], where Y was the […] at the inhibitor concentration, X, “Bottom” was the lowest inhibition value, i.e., 0%, “Top” was the maximum inhibition value, i.e., 100%, and the “Hill Slope” described the slope of the sigmoidal curve between the “Bottom” and “Top” values. The curve fitting was conducted with internally developed software.

`CO[C@H]1CCCC[C@@H]1c1nc2nn(-c3c(C)cc(C)cc3O)cc2c(=O)[nH]1` (racemic) [Example 36, racemic mixture of 2-(2-hydroxy-4,6-dimethylphenyl)-6-[(1R,2S)-2-methoxycyclohexyl]-2,5-dihydro-4H-pyrazolo[3,4-d]pyrimidin-4-one and 2-(2-hydroxy-4,6-dimethylphenyl)-6-[(1S,2R)-2-methoxycyclohexyl]-2,5-dihydro-4H-pyrazolo [3,4-d]pyrimidin-4-one]: the inhibition at 0.3 µM in experiment [1] came out at 97%. This compound also had a half-inhibitory concentration (IC50) in experiment [2] (Homo sapiens) of over 30 µM.

As to `Cc1ccc(-n2cc3c(=O)[nH]c(OCC(C)O)nc3n2)c(C)c1` (racemic) [Example 89, 2-(2,4-dimethylphenyl)-6-(2-hydroxypropoxy)-2,5-dihydro-4H-pyrazolo[3,4-d]pyrimidin-4-one], the inhibition at 0.3 µM in experiment [1] is 79%. This compound also came in with a half-inhibitory concentration (IC50) in experiment [2] (Homo sapiens) of over 30 µM.

As to `Cc1ccc(-n2cc3c(=O)[nH]c(OCC(C)OCc4ccccc4)nc3n2)c(C)c1` (racemic) [Example 99, 6-[2-(benzyloxy)propoxy]-2-(2,4-dimethylphenyl)-2,5-dihydro-4H-pyrazolo[3,4-d]pyrimidin-4-one], in experiment [1], the inhibition at 0.3 µM turned out to be 41%. Also, in experiment [2] (Homo sapiens), the IC50 was over 30 µM.

Regarding `CCOc1nc2nn(-c3c(C)cc(C4CC4(F)F)cc3F)cc2c(=O)[nH]1` (racemic) [Example 112, 2-[4-(2,2-difluorocyclopropyl)-2-fluoro-6-methylphenyl]-6-ethoxy-2,5-dihydro-4H-pyrazolo[3,4-d]pyrimidin-4-one], the inhibition at 0.3 µM in experiment [1] was found to be 98%. In experiment [2] (Homo sapiens), this compound had an IC50 of over 30 µM.

For the compound `CCOc1nc2nn(-c3c(F)cc(C4CC4)cc3C(O)C(F)(F)F)cc2c(=O)[nH]1` (racemic) [Example 192, 2-[4-cyclopropyl-2-fluoro-6-(2,2,2-trifluoro-1-hydroxyethyl)phenyl]-6-ethoxy-2,5-dihydro-4H-pyrazolo[3,4-d]pyrimidin-4-one], the inhibition at 0.3 µM in experiment [1] stood at 95%. In experiment [2] (Homo sapiens), this compound showed a concentration for half-maximal inhibition (IC50) of over 30 µM.

As for `CO[C@@H]1CC[C@H]1c1nc2nn(-c3c(C)cc(C4CC4)cc3C)cc2c(=O)[nH]1` (racemic) [Example 253, racemic mixture of 2-(4-cyclopropyl-2,6-dimethylphenyl)-6-[(1R,2S)-2-methoxycyclobutyl]-2,5-dihydro-4H-pyrazolo[3,4-d]pyrimidin-4-one and 2-(4-cyclopropyl-2,6-dimethylphenyl)-6-[(1S,2R)-2-methoxycyclobutyl]-2,5-dihydro-4H-pyrazolo[3,4-d]pyrimidin-4-one], the inhibition at 6 µM in experiment [1] was 95%. Also, in experiment [2] (Homo sapiens), the IC50 is over 30 µM.

For `CO[C@@H]1C[C@H]1c1nc2nn(-c3c(C)cc(C4CC4)cc3C)cc2c(=O)[nH]1` (racemic) [Example 265, racemic mixture of 2-(4-cyclopropyl-2,6-dimethylphenyl)-6-[(1R,2S)-2-methoxycyclopropyl]-2,5-dihydro-4H-pyrazolo[3,4-d]pyrimidin-4-one and 2-(4-cyclopropyl-2,6-dimethylphenyl)-6-[(1S,2R)-2-methoxycyclopropyl]-2,5-dihydro-4H-pyrazolo[3,4-d]pyrimidin-4-one], the inhibition at 6 µM in experiment [1] came to 95%. Further, the IC50 in experiment [2] (Homo sapiens) is over 30 µM.

As to `CO[C@@H]1COCC[C@@H]1c1nc2nn(-c3c(C)cc(C4CC4)cc3C)cc2c(=O)[nH]1` (racemic) [Example 310, racemic mixture of 1,5-anhydro-3-[2-(4-cyclopropyl-2,6-dimethylphenyl)-4-oxo-4,5-dihydro-2H-pyrazolo[3,4-d]pyrimidin-6-yl]-2,3-dideoxy-4-O-methyl-D-erythro-pentitol and 1,5-anhydro-3-[2-(4-cyclopropyl-2,6-dimethylphenyl)-4-oxo-4,5-dihydro-2H-pyrazolo[3,4-d]pyrimidin-6-yl]-3,4-dideoxy-2-O-methyl-D-erythro-pentitol], the inhibition at 6 µM in experiment [1] stood at 99%. The IC50 in experiment [2] (Homo sapiens) is over 30 µM.

Regarding `CO[C@H]1COCC[C@@H]1c1nc2nn(-c3c(C)cc(C4CC4)cc3C)cc2c(=O)[nH]1` (racemic) [Example 311, racemic mixture of 1,5-anhydro-3-[2-(4-cyclopropyl-2,6-dimethylphenyl)-4-oxo-4,5-dihydro-2H-pyrazolo[3,4-d]pyrimidin-6-yl]-2,3-dideoxy-4-O-methyl-L-threo-pentitol and 1,5-anhydro-3-[2-(4-cyclopropyl-2,6-dimethylphenyl)-4-oxo-4,5-dihydro-2H-pyrazolo[3,4-d]pyrimidin-6-yl]-2,3-dideoxy-4-O-methyl-D-threo-pentitol], in experiment [1], the inhibition at 6 µM was 102%. In experiment [2] (Homo sapiens), this compound gave a 50% inhibitory concentration (IC50) of over 30 µM.

Take `Cc1cc(C2CC2)cc(C(F)F)c1-n1cc2c(=O)[nH]c(C3COCCO3)nc2n1` (racemic) [Example 316, 2-[4-cyclopropyl-2-(difluoromethyl)-6-methylphenyl]-6-(1,4-dioxan-2-yl)-2,5-dihydro-4H-pyrazolo[3,4-d]pyrimidin-4-one]: in experiment [1], the inhibition at 6 µM worked out at 104%. This compound also gave an IC50 in experiment [2] (Homo sapiens) of over 30 µM.

Take `Cc1cc(C2CC2)cc(C)c1-n1cc2c(=O)[nH]c(C3CCCO3)nc2n1` (single isomer, unassigned) [Example 227, 2-(4-cyclopropyl-2,6-dimethylphenyl)-6-[(2R)-oxolan-2-yl]-2,5-dihydro-4H-pyrazolo[3,4-d]pyrimidin-4-one or 2-(4-cyclopropyl-2,6-dimethylphenyl)-6-[(2S)-oxolan-2-yl]-2,5-dihydro-4H-pyrazolo[3,4-d]pyrimidin-4-one (HPLC Method A: tR1)]: in experiment [1], the “IL-1β inhibitory rate at 300 nM (%)” value is on record as 100%. Besides, the IC50 in experiment [2] (Homo sapiens) was over 30 µM.

For `Cc1cc(C2CC2)cc(C)c1-n1cc2c(=O)[nH]c(C3CCCO3)nc2n1` (single isomer, unassigned) [Example 228, 2-(4-cyclopropyl-2,6-dimethylphenyl)-6-[(2S)-oxolan-2-yl]-2,5-dihydro-4H-pyrazolo[3,4-d]pyrimidin-4-one or 2-(4-cyclopropyl-2,6-dimethylphenyl)-6-[(2R)-oxolan-2-yl]-2,5-dihydro-4H-pyrazolo[3,4-d]pyrimidin-4-one (HPLC Method A: tR2)], the “IL-1β inhibitory rate at 300 nM (%)” value in experiment [1] is listed as 79%. The concentration for half-maximal inhibition (IC50) in experiment [2] was over 30 µM.

`O=c1[nH]c([C@H]2COCCO2)nc2nn(-c3c(F)cc(C4CC4)cc3C(F)F)cc12` (single isomer, unassigned) [Example 312, 2-[4-cyclopropyl-2-(difluoromethyl)-6-fluorophenyl]-6-[(2R)-1,4-dioxan-2-yl]-2,5-dihydro-4H-pyrazolo[3,4-d]pyrimidin-4-one or 2-[4-cyclopropyl-2-(difluoromethyl)-6-fluorophenyl]-6-[(2S)-1,4-dioxan-2-yl]-2,5-dihydro-4H-pyrazolo [3,4-d]pyrimidin-4-one]: the inhibition at 6 µM in experiment [1] was found to be 104%. For the same compound, the half-maximal inhibitory concentration (IC50) in experiment [2] (Homo sapiens) was over 30 µM.

For the compound `O=c1[nH]c([C@@H]2COCCO2)nc2nn(-c3c(F)cc(C4CC4)cc3C(F)F)cc12` (single isomer, unassigned) [Example 313, 2-[4-cyclopropyl-2-(difluoromethyl)-6-fluorophenyl]-6-[(2S)-1,4-dioxan-2-yl]-2,5-dihydro-4H-pyrazolo[3,4-d]pyrimidin-4-one or 2-[4-cyclopropyl-2-(difluoromethyl)-6-fluorophenyl]-6-[(2R)-1,4-dioxan-2-yl]-2,5-dihydro-4H-pyrazolo[3,4-d]pyrimidin-4-one], the inhibition at 6 µM in experiment [1] is 104%. In experiment [2] (Homo sapiens), this compound registered a concentration for half-maximal inhibition (IC50) of over 30 µM.
